Source: patent publication US20260091026A1, “METHODS OF TREATING INFLAMMATORY DISEASES” (INTERLINE THERAPEUTICS, INC., priority 2023, published 2026)

Key:
[1] = biological target: T1, GST-RIPK2 fusion protein (human RIPK2 amino acids 1-310) (Homo sapiens, UniProt O43353); experiment: RIPK2 binding competition assay (TR-FRET, Tracer 199); details: displacement of Tracer 199 (10 nM), 45 min at 22° C.
T1 construct: made in house; host or cells: baculovirus-infected Sf9 cells
Source text: The ability of selected compounds of Formulas (I) and (II) to inhibit the binding of an Alexa647-labelled ATP-competitive kinase inhibitor to a GST-RIPK2 fusion protein was quantified employing the TR-FRET-based RIPK2 binding competition assay as described in the following paragraphs.
Recombinant fusion protein of N-terminal Glutathione-S-Transferase (GST) and a fragment of human RIPK2 (amino acids 1-310 of accession number 043353), expressed in baculovirus infected Sf9 cells, purified via glutathione affinity chromatography, was used as GST-RIPK2 fusion protein. Tracer 199 from Life Technologies (catalogue no. PR9115B) was used as Alexa647-labelled ATP-competitive kinase inhibitor.
For the assay, 50 nL of a 100-fold concentrated solution of each test compound in DMSO was pipetted into either a black low volume 384-well microtiter plate or a black 1536-well microtiter plate (both Greiner Bio-One, Frickenhausen, Germany), 3 μL solution of Tracer 199 (16.7 nM=>final concentration in 5 μL assay volume is 10 nM) in aqueous assay buffer (25 mM Tris/HCl pH 7.5, 10 mM magnesium chloride (MgCl2), 5 mM β-glycerophosphate, 2.5 mM dithiothreitol (DTT), 0.5 mM ethylene glycol-bis(2-aminoethylether)-N,N,N′,N′-tetraacetic acid (EGTA), 0.5 mM sodium ortho-vanadate, 0.01% (w/v) bovine serum albumin (BSA), 0.005% (w/v) Pluronic F-127 (Sigma)) were added. Then the binding competition was started by the addition of 2 μL of a solution of the GST-RIPK2 fusion protein (2.5 nM=>final conc. in the 5 μL assay volume is 1 nM) and of Anti-GST-Tb (1.25 nM=>final conc. in the 5 μL assay volume is 0.5 nM), a Lumi4®—Tb cryptate-conjugated anti-GST antibody from PerkinElmer (catalogue no 61GSTTAH), in assay buffer.
The resulting mixture was incubated 45 min at 22° C. to allow the formation of a complex between the Tracer 199, the fusion protein and Anti-GST-Tb. Subsequently, the amount of this complex was evaluated by measurement of the resonance energy transfer from the Tb-cryptate to the Tracer 199. Therefore, the fluorescence emissions at 620 nm and 665 nm after excitation at 337 nm were measured in a TR-FRET reader, e.g. a Pherastar FS(BMG Labtechnologies, Offenburg, Germany) or a Viewlux (PerkinElmer). The ratio of the emissions at 665 nm and at 620 nm was taken as the measure of the amount of the complex. The data were normalized (assay reaction without inhibitor=0% activity, all other assay components but no GST-RIPK2 fusion protein=−100% activity).

[2] = system: THP1-Dual cells, NF-κB pathway (SEAP); experiment: THP-1 Dual cell SEAP assay (L18-MDP stimulated); type: cell-based; details: Homo sapiens, 10 ng/mL L18-MDP, 20-24 h, SEAP readout, read-out: IFNγ THP1 IC50
Outline: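 IC50 values come from non-linear fits of % inhibition of SEAP, measured as QUANTI-Blue optical density (620-655 nm, 2 h) in media-blanked supernatants. These were taken from THP1-Dual cells treated with compound for 30 min before overnight exposure to 10 ng/mL L18-MDP final at 37 °C.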

[3] = biological target: T2, RIPK2 (KD)/XIAP (BIR2) (Homo sapiens, UniProt O43353); experiment: RIPK2-XIAP binding competition PPI assay (TR-FRET); details: for Emax: read-out: PPI Amax; for IC50: GST-RIPK2 / His-XIAP (BIR2)-avi, 120 min at 23° C.
T2 construct: made in house; host or cells: baculovirus-infected Sf9 cells
T2 sequence (O43353 1-310): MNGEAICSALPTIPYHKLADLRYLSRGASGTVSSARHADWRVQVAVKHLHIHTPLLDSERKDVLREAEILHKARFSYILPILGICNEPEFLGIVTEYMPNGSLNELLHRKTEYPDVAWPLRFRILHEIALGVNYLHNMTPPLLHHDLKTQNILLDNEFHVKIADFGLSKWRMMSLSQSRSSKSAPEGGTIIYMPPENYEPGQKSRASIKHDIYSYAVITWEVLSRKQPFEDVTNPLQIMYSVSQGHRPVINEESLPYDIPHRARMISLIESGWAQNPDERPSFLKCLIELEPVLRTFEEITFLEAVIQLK
Outline: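 After 2 h at 23 °C, complex formation was read as the 665/520 nm emission ratio (337 nm excitation), scaled between uninhibited reaction and 50 nM GSK583. The mix held 1 nM human RIPK2 kinase fragment-GST, 25 nM His-tagged XIAP BIR2 and Tb/XL665 antibodies in pH 7.5 Tris buffer containing vanadate and glycerophosphate.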

[4] = 50 nM of GSK583 = -100% activity

T1 sequence (O43353 1-310): as above

**Q.** Which IC50 [1] does the source give for `COc1cc2ncc(-n3cc(C(=O)NCc4ccccc4)cn3)n2cc1S(=O)(=O)C(C)(C)C` [Example 1, N-benzyl-1-(6-(tert-butylsulfonyl)-7-methoxyimidazo[1,2-a]pyridin-3-yl)-1H-pyrazole-4-carboxamide] here?
**A.** 200 to 500 nM

**Q.** And the IC50 [2]?
**A.** > 2500 nM

**Q.** And the Emax [3, 4]?
**A.** ≥ 80%

**Q.** What about the IC50 [3] of the same compound?
**A.** 100 to 1000 nM

**Q.** Which results are given for `COc1cc2ncc(-n3cc(NC(=O)[C@@H](c4ccccc4)N(C)C)cn3)n2cc1S(=O)(=O)C(C)(C)C` [Example 166, (R)-N-(1-(6-(tert-butylsulfonyl)-7-methoxyimidazo[1,2-a]pyridin-3-yl)-1H-pyrazol-4-yl)-2-(dimethylamino)-2-phenylacetamide]?
**A.** IC50 [1]: > 1000 nM; IC50 [2]: > 2500 nM; Emax [3, 4]: ≥ 80%; IC50 [3]: > 1000 nM

**Q.** Which IC50 [1] does the source give for `COc1cc2ncc(-n3cc(NC(=O)C4(C)CCCCC4)cn3)n2cc1S(=O)(=O)C(C)(C)C` [Example 175, N-(1-(6-(tert-butylsulfonyl)-7-methoxyimidazo[1,2-a]pyridin-3-yl)-1H-pyrazol-4-yl)-1-methylcyclohexane-1-carboxamide] here?
**A.** > 1000 nM

**Q.** What about the IC50 [2] of the same compound?
**A.** > 2500 nM

**Q.** And the Emax [3, 4]?
**A.** 55 to 80%

**Q.** And the IC50 [3]?
**A.** > 1000 nM

**Q.** What does the source list for `COc1cc2ncc(-n3cc(NC(=O)Cc4ccc(F)cc4Cl)cn3)n2cc1S(=O)(=O)C(C)(C)C` [Example 158, N-(1-(6-(tert-butylsulfonyl)-7-methoxyimidazo[1,2-a]pyridin-3-yl)-1H-pyrazol-4-yl)-2-(2-chloro-4-fluorophenyl)acetamide]?
**A.** IC50 [1]: 500 to 1000 nM; IC50 [2]: > 2500 nM; Emax [3, 4]: ≥ 80%; IC50 [3]: > 1000 nM

**Q.** Which IC50 [1] does the source give for `COc1cc2ncc(-n3cc(C(=O)NCc4c(F)cc(F)cc4F)cn3)n2cc1S(=O)(=O)C(C)(C)C` [Example 3, 1-(6-(tert-butylsulfonyl)-7-methoxyimidazo [1,2-a]pyridin-3-yl)-N-(2,4,6-trifluorobenzyl)-1H-pyrazole-4-carboxamide] here?
**A.** > 1000 nM

**Q.** What about the IC50 [2] of the same compound?
**A.** > 2500 nM

**Q.** What about the Emax [3, 4] of the same compound?
**A.** 30 to 55%

**Q.** And the IC50 [3]?
**A.** > 1000 nM

**Q.** What does the source list for `COc1ccn2ncc(-c3cc(NC(=O)C4(F)CCCCC4)n(CCO)n3)c2n1` [compound 194]?
**A.** IC50 [1]: > 1000 nM; IC50 [2]: > 2500 nM; Emax [3, 4]: ≤ 30%; IC50 [3]: > 1000 nM

**Q.** What does the source list for `COc1cc2ncc(-n3cc(NC(=O)N4CCCC4c4ccccc4)cn3)n2cc1S(=O)(=O)C(C)(C)C` (single isomer, unassigned) [Example 178, (R)- or (S)-N-(1-(6-(tert-butylsulfonyl)-7-methoxyimidazo[1,2-a]pyridin-3-yl)-1H-pyrazol-4-yl)-2-phenylpyrrolidine-1-carboxamide]?
**A.** IC50 [1]: > 1000 nM; IC50 [2]: > 2500 nM; PPI Amax [3, 4]: C (Amax of 55%>C>30); IC50 [3]: > 1000 nM

**Q.** For `COc1cc2ncc(-n3cc(NC(=O)[C@H]4CC[C@@H](O)CC4)cn3)n2cc1S(=O)(=O)C(C)(C)C` [Example 172, (1s,4s)-N-(1-(6-(tert-butylsulfonyl)-7-methoxyimidazo[1,2-a]pyridin-3-yl)-1H-pyrazol-4-yl)-4-hydroxycyclohexane-1-carboxamide], which IC50 [1] is on record?
**A.** > 1000 nM

**Q.** What about the IC50 [2] of the same compound?
**A.** > 2500 nM

**Q.** What about the Emax [3, 4] of the same compound?
**A.** 30 to 55%

**Q.** What about the IC50 [3] of the same compound?
**A.** > 1000 nM

**Q.** For `COc1cc2ncc(-n3cc(NC(=O)[C@@H]4C[C@H]4c4ccccc4)cn3)n2cc1S(=O)(=O)C(C)(C)C` [Example 168, (1R,2R)-N-(1-(6-(tert-butylsulfonyl)-7-methoxyimidazo[1,2-a]pyridin-3-yl)-1H-pyrazol-4-yl)-2-phenylcyclopropane-1-carboxamide], which IC50 [1] is on record?
**A.** > 1000 nM

**Q.** And the IC50 [2]?
**A.** > 2500 nM

**Q.** And the Emax [3, 4]?
**A.** ≥ 80%

**Q.** What about the IC50 [3] of the same compound?
**A.** > 1000 nM

**Q.** How did the IC50 [2] turn out when `COc1cc2ncc(-c3cc(C(=O)NCc4ncccc4Cl)n(C)n3)n2cc1S(=O)(=O)C(C)(C)C` [Example 71, 3-(6-(tert-butylsulfonyl)-7-methoxyimidazo[1,2-a]pyridin-3-yl)-N-((3-chloropyridin-2-yl)methyl)-1-methyl-1H-pyrazole-5-carboxamide] was run?
**A.** 500 to 2500 nM

**Q.** What about the Emax [3, 4] of the same compound?
**A.** ≥ 80%

**Q.** And the IC50 [3]?
**A.** 10 to 100 nM

**Q.** `CCn1nc(-c2cnc3cc(OC)c(S(=O)(=O)C(C)(C)C)cn23)cc1C(=O)N[C@H](C)c1ccn(C)n1` [Example 125, (R)-3-(6-(tert-butylsulfonyl)-7-methoxyimidazo[1,2-a]pyridin-3-yl)-1-ethyl-N-(1-(1-methyl-1H-pyrazol-3-yl)ethyl)-1H-pyrazole-5-carboxamide] was tested. Which IC50 [2] did it give?
**A.** < 100 nM

**Q.** What about the Emax [3, 4] of the same compound?
**A.** ≥ 80%

**Q.** What about the IC50 [3] of the same compound?
**A.** 10 to 100 nM

**Q.** How did the IC50 [2] turn out when `CC(C)n1nc(-c2cnc3cc(OCCO)c(S(=O)(=O)C(C)(C)C)cn23)cc1C(=O)N[C@H](C)c1ncccn1` [Example 137, (R)-3-(6-(tert-butylsulfonyl)-7-(2-hydroxyethoxy)imidazo[1,2-a]pyridin-3-yl)-1-isopropyl-N-(1-(pyrimidin-2-yl)ethyl)-1H-pyrazole-5-carboxamide] was run?
**A.** < 100 nM

**Q.** And the Emax [3, 4]?
**A.** ≥ 80%

**Q.** What about the IC50 [3] of the same compound?
**A.** < 10 nM

**Q.** For `C[C@@H](NC(=O)c1cc(-c2cnc3cc(OCCO)c(S(=O)(=O)C(C)(C)C)cn23)nn1C1COC1)c1ncccc1F` [Example 139, (R)-3-(6-(tert-butylsulfonyl)-7-(2-hydroxyethoxy)imidazo[1,2-a]pyridin-3-yl)-N-(1-(3-fluoropyridin-2-yl)ethyl)-1-(oxetan-3-yl)-1H-pyrazole-5-carboxamide], which IC50 [2] is on record?
**A.** 100 to 500 nM

**Q.** And the Emax [3, 4]?
**A.** ≥ 80%

**Q.** What about the IC50 [3] of the same compound?
**A.** 10 to 100 nM

**Q.** For `COc1cc2ncc(-c3cc(C(=O)N[C@H](CO)c4ccccc4)n(C)n3)n2cc1S(=O)(=O)C(C)(C)C` [Example 11, (S)-3-(6-(tert-butylsulfonyl)-7-methoxyimidazo[1,2-a]pyridin-3-yl)-N-(2-hydroxy-1-phenylethyl)-1-methyl-1H-pyrazole-5-carboxamide], which IC50 [2] is on record?
**A.** > 2500 nM

**Q.** And the Emax [3, 4]?
**A.** ≤ 30%

**Q.** And the IC50 [3]?
**A.** > 1000 nM

**Q.** `COc1cc2ncc(-c3cc(C(=O)NCc4ncccc4F)n(C)n3)n2cc1S(=O)(=O)C(C)(C)C` [Example 49, 3-(6-(tert-butylsulfonyl)-7-methoxyimidazo[1,2-a]pyridin-3-yl)-N-((3-fluoropyridin-2-yl)methyl)-1-methyl-1H-pyrazole-5-carboxamide] was tested. Which IC50 [2] did it give?
**A.** 500 to 2500 nM

**Q.** And the Emax [3, 4]?
**A.** ≥ 80%

**Q.** What about the IC50 [3] of the same compound?
**A.** 10 to 100 nM

**Q.** Which results are given for `COc1cc2ncc(-c3cc(C(=O)NCC4CCCC4)n(C)n3)n2cc1S(=O)(=O)C(C)(C)C` [Example 40, 3-(6-(tert-butylsulfonyl)-7-methoxyimidazo[1,2-a]pyridin-3-yl)-N-(cyclopentylmethyl)-1-methyl-1H-pyrazole-5-carboxamide]?
**A.** IC50 [2]: > 2500 nM; Emax [3, 4]: ≥ 80%; IC50 [3]: 100 to 1000 nM

**Q.** Which results are given for `C[C@@H](NC(=O)c1cc(-c2cnc3cc(OCCO)c(S(=O)(=O)C(C)(C)C)cn23)nn1C)c1ncccc1F` [Example 110, (R)-3-(6-(tert-butylsulfonyl)-7-(2-hydroxyethoxy)imidazo[1,2-a]pyridin-3-yl)-N-(1-(3-fluoropyridin-2-yl)ethyl)-1-methyl-1H-pyrazole-5-carboxamide]?
**A.** IC50 [2]: < 100 nM; Emax [3, 4]: ≥ 80%; IC50 [3]: 10 to 100 nM

**Q.** Which results are given for `COc1cc2ncc(-c3cc(C(=O)N[C@H](C)c4ccccn4)n(C4CC4)n3)n2cc1S(=O)(=O)C(C)(C)C` [Example 99, (R)-3-(6-(tert-butylsulfonyl)-7-methoxyimidazo[1,2-a]pyridin-3-yl)-1-cyclopropyl-N-(1-(pyridin-2-yl)ethyl)-1H-pyrazole-5-carboxamide]?
**A.** IC50 [2]: < 100 nM; Emax [3, 4]: ≥ 80%; IC50 [3]: < 10 nM
